Reference: ChEMBL document CHEMBL3885881, “DrugMatrix”
Where “and” joins values, the source holds several entries; their conditions need not be identical. Equal entries are not always repeated.

Species: Rattus norvegicus
Test: DrugMatrix - Regimen: Daily Repeat
Format: toxicity, organism-based, Sprague-Dawley
Parameters: regimen Daily Repeat, gender Male, age 6-8 weeks
Conditions: in vivo, po, 0 mg/kg, route oral GAVAGE, dose level Control, vehicle .5 % CMC; for BASOPHIL / EOSINOPHIL / ERYTHROCYTE COUNT / HEMATOCRIT / HEMOGLOBIN / LEUKOCYTE COUNT / LYMPHOCYTE / MEAN CORPUSCULAR HEMOGLOBIN / MEAN CORPUSCULAR HEMOGLOBIN CONCENTRATION / MEAN CORPUSCULAR VOLUME / MONOCYTE / NEUTROPHIL / PLATELET COUNT / ABSOLUTE BASOPHIL / ABSOLUTE EOSINOPHIL / ABSOLUTE LYMPHOCYTE / ABSOLUTE MONOCYTE / ABSOLUTE SEGMENTED NEUTROPHIL: tissue Blood; for ALANINE AMINOTRANSFERASE / ALBUMIN / ALKALINE PHOSPHATASE / ASPARTATE AMINOTRANSFERASE / BLOOD UREA NITROGEN / CHLORIDE / CHOLESTEROL / CREATINE PHOSPHOKINASE / CREATININE / GLUCOSE / PHOSPHORUS / POTASSIUM / SODIUM / TOTAL BILIRUBIN / TOTAL PROTEIN / LACTATE DEHYDROGENASE / LIPASE / URIC ACID: tissue Plasma

Cc1ccc2cc3c(ccc4ccccc43)c3c2c1CC3 [3-METHYLCHOLANTHRENE]
BASOPHIL (72 h, time 3 day): 0.52%
EOSINOPHIL (72 h, time 3 day): 0.48%
ERYTHROCYTE COUNT (72 h, time 3 day): 6.68 x10E6/uL
HEMATOCRIT (72 h, time 3 day): 43.07%
HEMOGLOBIN (72 h, time 3 day): 13.48 G/DL
LEUKOCYTE COUNT (72 h, time 3 day): 11.41 x10E3/uL
LYMPHOCYTE (72 h, time 3 day): 80.78%
MEAN CORPUSCULAR HEMOGLOBIN (72 h, time 3 day): 20.2 pg
MEAN CORPUSCULAR HEMOGLOBIN CONCENTRATION (72 h, time 3 day): 31.32 G/DL
MEAN CORPUSCULAR VOLUME (72 h, time 3 day): 64.45 fL
MONOCYTE (72 h, time 3 day): 2.23%
NEUTROPHIL (72 h, time 3 day): 14.73%
PLATELET COUNT (72 h, time 3 day): 1225.83 x10E3/uL
ALANINE AMINOTRANSFERASE (72 h, time 3 day): 44.5 u/L
ALBUMIN (72 h, time 3 day): 3.62 G/DL
ALKALINE PHOSPHATASE (72 h, time 3 day): 404.5 u/L
ASPARTATE AMINOTRANSFERASE (72 h, time 3 day): 71.67 u/L
BLOOD UREA NITROGEN (72 h, time 3 day): 15 mg/dL
CHLORIDE (72 h, time 3 day): 103 MEQ/L
CHOLESTEROL (72 h, time 3 day): 96.83 mg/dL
CREATINE PHOSPHOKINASE (72 h, time 3 day): 236 u/L
CREATININE (72 h, time 3 day): 0.43 mg/dL
GLUCOSE (72 h, time 3 day): 186.83 mg/dL
PHOSPHORUS (72 h, time 3 day): 12.67 mg/dL
POTASSIUM (72 h, time 3 day): 7.1 MEQ/L
SODIUM (72 h, time 3 day): 147.33 MEQ/L
TOTAL BILIRUBIN (72 h, time 3 day): 0.52 mg/dL
TOTAL PROTEIN (72 h, time 3 day): 6.18 G/DL
ABSOLUTE BASOPHIL (120 h, time 5 day): 92 cells/µL
ABSOLUTE EOSINOPHIL (120 h, time 5 day): 52 cells/µL
ABSOLUTE LYMPHOCYTE (120 h, time 5 day): 6560 cells/µL
ABSOLUTE MONOCYTE (120 h, time 5 day): 160 cells/µL
ABSOLUTE SEGMENTED NEUTROPHIL (120 h, time 5 day): 1130 cells/µL
BASOPHIL (120 h, time 5 day): 1.14% and 0.92%
EOSINOPHIL (120 h, time 5 day): 0.68% and 0.43%
ERYTHROCYTE COUNT (120 h, time 5 day): 7.51 x10E6/uL and 7.03 x10E6/uL
HEMATOCRIT (120 h, time 5 day): 46.04% and 46.55%
HEMOGLOBIN (120 h, time 5 day): 15.62 G/DL and 14.32 G/DL
LEUKOCYTE COUNT (120 h, time 5 day): 8.03 x10E3/uL and 12.22 x10E3/uL
LYMPHOCYTE (120 h, time 5 day): 81.54% and 82.65%
MEAN CORPUSCULAR HEMOGLOBIN (120 h, time 5 day): 20.84 pg and 20.35 pg
MEAN CORPUSCULAR HEMOGLOBIN CONCENTRATION (120 h, time 5 day): 33.94 G/DL and 30.77 G/DL
MEAN CORPUSCULAR VOLUME (120 h, time 5 day): 61.42 fL and 66.28 fL
MONOCYTE (120 h, time 5 day): 2% and 2.28%
NEUTROPHIL (120 h, time 5 day): 14.24% and 12.73%
PLATELET COUNT (120 h, time 5 day): 1427.2 x10E3/uL and 1268.67 x10E3/uL
ALANINE AMINOTRANSFERASE (120 h, time 5 day): 35.6 u/L and 44.5 u/L
ALBUMIN (120 h, time 5 day): 3.64 G/DL and 3.73 G/DL
ALKALINE PHOSPHATASE (120 h, time 5 day): 233 u/L and 340.83 u/L
ASPARTATE AMINOTRANSFERASE (120 h, time 5 day): 81 u/L and 66.5 u/L
BLOOD UREA NITROGEN (120 h, time 5 day): 12 mg/dL and 13.33 mg/dL
CHLORIDE (120 h, time 5 day): 109.4 MEQ/L and 102.17 MEQ/L
CHOLESTEROL (120 h, time 5 day): 47.6 mg/dL and 82.17 mg/dL
CREATINE PHOSPHOKINASE (120 h, time 5 day): 183.2 u/L and 146.67 u/L
CREATININE (120 h, time 5 day): 0.4 mg/dL and 0.35 mg/dL
GLUCOSE (120 h, time 5 day): 134.6 mg/dL and 186.17 mg/dL
LACTATE DEHYDROGENASE (120 h, time 5 day): 89.4 u/L
LIPASE (120 h, time 5 day): 17.2 u/L
PHOSPHORUS (120 h, time 5 day): 13.02 mg/dL and 11.83 mg/dL
POTASSIUM (120 h, time 5 day): 7 MEQ/L and 6.47 MEQ/L
SODIUM (120 h, time 5 day): 149.6 MEQ/L and 148.83 MEQ/L
TOTAL PROTEIN (120 h, time 5 day): 6.06 G/DL and 6.27 G/DL
URIC ACID (120 h, time 5 day): 1.04 mg/dL
ABSOLUTE BASOPHIL (2184 h, time 91 day): 130 cells/µL
ABSOLUTE EOSINOPHIL (2184 h, time 91 day): 70 cells/µL
ABSOLUTE LYMPHOCYTE (2184 h, time 91 day): 8670 cells/µL
ABSOLUTE MONOCYTE (2184 h, time 91 day): 160 cells/µL
ABSOLUTE SEGMENTED NEUTROPHIL (2184 h, time 91 day): 1530 cells/µL
BASOPHIL (2184 h, time 91 day): 1.13%
EOSINOPHIL (2184 h, time 91 day): 0.66%
ERYTHROCYTE COUNT (2184 h, time 91 day): 9.13 x10E6/uL
HEMATOCRIT (2184 h, time 91 day): 48.47%
HEMOGLOBIN (2184 h, time 91 day): 16.56 G/DL
LEUKOCYTE COUNT (2184 h, time 91 day): 10.5 x10E3/uL
LYMPHOCYTE (2184 h, time 91 day): 81.63%
MEAN CORPUSCULAR HEMOGLOBIN (2184 h, time 91 day): 18.16 pg
MEAN CORPUSCULAR HEMOGLOBIN CONCENTRATION (2184 h, time 91 day): 34.14 G/DL
MEAN CORPUSCULAR VOLUME (2184 h, time 91 day): 53.14 fL
MONOCYTE (2184 h, time 91 day): 1.53%
NEUTROPHIL (2184 h, time 91 day): 14.71%
PLATELET COUNT (2184 h, time 91 day): 1280.22 x10E3/uL
ALANINE AMINOTRANSFERASE (2184 h, time 91 day): 28.89 u/L
ALBUMIN (2184 h, time 91 day): 3.69 G/DL
ALKALINE PHOSPHATASE (2184 h, time 91 day): 101.11 u/L
ASPARTATE AMINOTRANSFERASE (2184 h, time 91 day): 70.67 u/L
BLOOD UREA NITROGEN (2184 h, time 91 day): 16.78 mg/dL
CHLORIDE (2184 h, time 91 day): 104.56 MEQ/L
CHOLESTEROL (2184 h, time 91 day): 58.78 mg/dL
CREATINE PHOSPHOKINASE (2184 h, time 91 day): 91.22 u/L
CREATININE (2184 h, time 91 day): 0.61 mg/dL
GLUCOSE (2184 h, time 91 day): 142.33 mg/dL
LACTATE DEHYDROGENASE (2184 h, time 91 day): 81.67 u/L
LIPASE (2184 h, time 91 day): 13 u/L
PHOSPHORUS (2184 h, time 91 day): 7.54 mg/dL
POTASSIUM (2184 h, time 91 day): 6.27 MEQ/L
SODIUM (2184 h, time 91 day): 149.89 MEQ/L
TOTAL BILIRUBIN (2184 h, time 91 day): 0.19 mg/dL
TOTAL PROTEIN (2184 h, time 91 day): 7.12 G/DL
URIC ACID (2184 h, time 91 day): 0.97 mg/dL
ABSOLUTE BASOPHIL ([…], time 28 day): 150 cells/µL
ABSOLUTE EOSINOPHIL ([…], time 28 day): 54 cells/µL
ABSOLUTE LYMPHOCYTE ([…], time 28 day): 8890 cells/µL
ABSOLUTE MONOCYTE ([…], time 28 day): 190 cells/µL
ABSOLUTE SEGMENTED NEUTROPHIL ([…], time 28 day): 2250 cells/µL
BASOPHIL ([…], time 28 day): 1.26%
EOSINOPHIL ([…], time 28 day): 0.46%
ERYTHROCYTE COUNT ([…], time 28 day): 8.34 x10E6/uL
HEMATOCRIT ([…], time 28 day): 48.66%
HEMOGLOBIN ([…], time 28 day): 16.04 G/DL
LEUKOCYTE COUNT ([…], time 28 day): 11.58 x10E3/uL
LYMPHOCYTE ([…], time 28 day): 76.74%
MEAN CORPUSCULAR HEMOGLOBIN ([…], time 28 day): 19.2 pg
MEAN CORPUSCULAR HEMOGLOBIN CONCENTRATION ([…], time 28 day): 32.92 G/DL
MEAN CORPUSCULAR VOLUME ([…], time 28 day): 58.32 fL
MONOCYTE ([…], time 28 day): 1.76%
NEUTROPHIL ([…], time 28 day): 19.44%
PLATELET COUNT ([…], time 28 day): 1282.6 x10E3/uL
ALANINE AMINOTRANSFERASE ([…], time 28 day): 27 u/L
ALBUMIN ([…], time 28 day): 3.68 G/DL
ALKALINE PHOSPHATASE ([…], time 28 day): 146.2 u/L
ASPARTATE AMINOTRANSFERASE ([…], time 28 day): 66.6 u/L
BLOOD UREA NITROGEN ([…], time 28 day): 12.4 mg/dL
CHLORIDE ([…], time 28 day): 104.6 MEQ/L
